This passage reports MIC results from patent US20080132500A1, “Antibiotic compounds” (priority 2006, published 2008).

Values after ≈ are worked out from the molar mass of the structure shown. Like-named read-outs stand apart in the source and are kept apart here.

Common to all, as to experiment: Microbroth dilution MIC
Type in all cases: cell-based

Assay [1] concerns Staphylococcus Aureus CL 5814. The note with it: Staphylococcus Aureus strain CL 5814. The procedure: (§1) Cation-Adjusted Mueller Hinton Broth (BBL): Prepared according to manufacturer's instructions (22 gms dissolved in 1000 mL water; autoclaved 22 minutes). Stored refrigerated. Filter-sterilized before use using a Coming 0.45 Tm cellulose acetate filter.
(§2) The type of strains listed above can be obtained from publicly available sources. The strain of Haemophilus influenzae used in to assay the compound of this invention is a mouse pathogen used for in vivo testing at Merck. The Escherichia coli strain used in to assay the compound of this invention is a cell wall permeable strain. The Candida albicans strain is used as a control. These culture are maintained as frozen stocks at −80° C. in a) Microbank beads; b) 2× Skim Milk; or c) in 2× X Trypticase Soy Broth+15% glycerol/50% horse serum (Haemophilus and Streptococcus pneumoniae).
(§3) Selected isolates are sub-cultured onto either Chocolate Agar Plates (Haemophilus influenzae), onto Trypticase Soy+5% Sheep Blood Agar Plates (Streptococcus pneumoniae, Staphylococcus aureus, Escherichia coli, Enterococcus, Bacillus) or onto Sabouraud Dextrose Agar (Candida) and incubated at 35° C. Haemophilus and Streptococcus pneumoniae are incubated in 5% CO2; all other isolates are incubated in ambient air. Isolates are sub-cultured 2× before assay.
(§4) Colonies are selected from plates and used to prepare an inoculum equivalent to a 0.5 McFarland standard in Trypticase Soy Broth. An inoculum with a density equivalent to a 1.0 McFarland standard is prepared for Streptococcus pneumoniae. The inoculum density for all cultures is ˜10^8 CFU/mL in TSB. This TSB inoculum is diluted 1:10 in sterile saline (4 mL inoculum+36 mL saline; equivalent to ˜10^7 CFU/mL) and kept on ice until used to inoculate microtiter plates.
(§5) All wells of 96-well microtiter plates (Dynex) are filled with 100 TL media. Haemophilus test media plates are prepared to test Haemophilus influenzae; Cation-Adjusted Mueller Hinton+5% Lysed Horse Blood plates are prepared to test Streptococcus pneumoniae; Cation-Adjusted Mueller Hinton Broth plates are prepared to test Enterococcus, Staphylococcus aureus, Escherichia coli and Bacillus subtilis. RPMI 1640 is used to test Candida. The MICs against S. aureus Smith are determined in Cation-adjusted Mueller Hinton and in Cation-Adjusted Mueller Hinton+50% Human Serum, to determine if the compound is inactivated by some component in serum (indicated by an increase in the MIC). Filled plates are wrapped in plastic bags (to minimize evaporation), stored frozen and thawed before use.
(§6) The compounds are prepared on a weight basis. Compounds are prepared to 2-10 mg/mL in 100% DMSO, then diluted to 1 mg/mL in a 1:1 dilution of DMSO/233 CAMHB (final concentration=50% DMSO/50% CAMHB). Compounds are serially diluted 1:1 in 50% DMSO/50% CAMHB in BD Biosciences Deep Well Polypropylene 96 well plates (starting concentration 1-5 mg/mL).
(§7) Using a Finn Automated Multichannel Pipette, (0.5-10 μL volume) 6.4 TLs of antimicrobial working solutions are added to wells of filled microtiter plates (concentration of antimicrobial in first well=512-64 microg/mL; concentration of DMSO=3.2%). Antimicrobials are added in this manner to keep constant the amount of DMSO in each well (to keep compounds solubilized and to account for the possibility of non-specific killing by the DMSO. The last row contains a growth control of 3.2% DMSO.
(§8) Controls (Penicillin G and chloramphenicol) are run with each assay. The controls are prepared in the same manner as described for the compounds of the invention. Ertapenem is included as a control for the serum protein binding assay.
(§9) Plates are incubated at 35° C. in ambient air. An uninoculated plate is also incubated as a sterility check. Results are recorded after 22-24-hours' incubation. Plates were read to no growth.

Assay [2] concerns Enterococcus Faecalia CLB 21560. The procedure:
as §1, §2, §3, §4, §5, §6, §7, §8, §9

Assay [3] deals with Staphylococcus Aureus CL 8260. Particulars: Staphylococcus Aureus strain CL 8260. On the procedure:
as §1, §2, §3, §4, §5, §6, §7, §8, §9

The test system of assay [4] is Staphylococcus Aureus MB 2865. The note with it: Staphylococcus Aureus strain MB 2865. On the procedure: as §1, §2, §3, §4, §5, §6, §7, §8, §9

Usually MIC stands for the lowest concentration that inhibits growth of the organism. Turning to `CO/C(C)=C1/NC(=O)[C@H]([C@@H](C)O)NC(=O)c2csc(n2)-c2cc(O)c(-c3nc(CNCCO)cs3)nc2-c2csc(n2)[C@@H]2COC(=O)c3c4c5c(cccc5n3O)COC(=O)[C@@H](O[C@H]3C[C@](C)(O)[C@H](N(C)C)[C@H](C)O3)[C@@H](OC4)[C@H](NC(=O)c3csc1n3)c1nc(cs1)C(=O)N2` [Compound B], the MIC in assay [1] was determined as 0.0075 µg/mL (≈ 0.00536 µM); in assay [2] (Enterococcus Faecalia strain CLB 21560, read-out: MIC), 0.06 µg/mL (≈ 0.0429 µM); in assay [3], 0.03 µg/mL (≈ 0.0215 µM); in assay [4], 0.03 µg/mL (≈ 0.0215 µM).
As for `CO/C(C)=C1/NC(=O)[C@H]([C@@H](C)O)NC(=O)c2csc(n2)-c2cc(O)c(-c3nc(CNC(=O)CN4CCOCC4)cs3)nc2-c2csc(n2)[C@@H]2COC(=O)c3c4c5c(cccc5n3O)COC(=O)[C@@H](O[C@H]3C[C@](C)(O)[C@H](N(C)C)[C@H](C)O3)[C@@H](OC4)[C@H](NC(=O)c3csc1n3)c1nc(cs1)C(=O)N2` [Compound A], the MIC in assay [1] worked out at 0.0038 µg/mL (≈ 0.00256 µM); in assay [2] (Enterococcus), 0.015 µg/mL (≈ 0.0101 µM); in assay [3], 0.015 µg/mL (≈ 0.0101 µM); in assay [4], 0.0075 µg/mL (≈ 0.00506 µM).
